Data published in PubChem BioAssay AID1259411 (Chemical Carcinogenesis Research Information System (CCRIS), 2018).
The source made the active and inactive calls. How the calls were made is not given here.

Test system: rodent carcinogenicity bioassays, tumor incidence
Assay: CCRIS carcinogenicity studies
How it was run: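 NCI-built, expert-reviewed records of carcinogenicity and related test outcomes (mutagenicity, tumor promotion/inhibition) compiled from published and report sources, historical span 1985-2011, not updated.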

## [O-][Br+2]([O-])O
Species: Hamster, Strain/Sex: Syrian golden/Male (20/group), Route: Oral, Dose: 0, 125, 250, 500, 2000 ppm in drinking water for 89 wk, study duration 89 wk, Dose: 0, 125, 250, 500, 2000 ppm in drinking water for 89 wk, study duration 89 wk, Tumor Site: Type of Lesion: Kidney: Renal adenoma (0/20, 0/20, 1/20, 2/20, 4/20)
  carcinogen call: active; positive
Species: Mouse, Strain/Sex: B6C3F1, BDF1, and CDF1/Male (27/experimental group, 15/control group), Route: Oral, Dose: 0, 750 ppm in drinking water for 88 wk, study duration 88 wk, Tumor Site: Type of Lesion: Kidney: Renal adenoma and carcinoma - B6C3F1: 0/15 (controls), 3/26 (750 ppm), BDF1: 0/15 (controls),1/27 (750 ppm), CDF, Tumor Site: Type of Lesion: Kidney: Renal adenoma and carcinoma - B6C3F1: 0/15 (controls), 3/26 (750 ppm), BDF1: 0/15 (controls),1/27 (750 ppm), CDF
  carcinogen call: active; positive
Species: Mouse, Strain/Sex: B6C3F1/Female (25/ group), Route: Oral, Dose: 0, 500, 1000 ppm in drinking water for 78 wk, followed by tap water for 26 wk, study duration 104 wk, Dose: 0, 500, 1000 ppm in drinking water for 78 wk, followed by tap water for 26 wk, study duration 104 wk
  carcinogen call: inactive; negative
Species: Mouse, Strain/Sex: Ogg1 wild type/Female (15/15)/(13/15), Route: Oral, Dose: 2 g/l in drinking water for 18 wk followed by 1 g/l in drinking water for 11 wk (Study duration: 52 wk)
  carcinogen call: inactive; negative (kidney, liver, lung, spleen, thymus, stomach, and intestine examined);
Species: Mouse, Strain/Sex: Ogg1 wild type/Male (13/15)/(15/15), Route: Oral, Dose: 2 g/l in drinking water for 18 wk followed by 1 g/l in drinking water for 11 wk (Study duration: 52 wk)
  carcinogen call: inactive; negative (kidney, liver, lung, spleen, thymus, stomach and intestine examined);
Species: RAT, Strain/Sex: F344/FEMALE, Route: ORAL, Dose: 250, 500 PPM IN DRINKING WATER FOR 110 WK, Tumor Site: Type of Lesion: KIDNEY: RENAL CELL ADENOMA, RENAL CELL ADENOCARCINOMA
  carcinogen call: active; positive
Species: RAT, Strain/Sex: F344/MALE, Route: ORAL, Dose: 0, 0.02, 0.1, 0.2, 0.4 G/L IN DRINKING WATER FOR 52, 78, OR 100 WK (STUDY DURATION: 100 WK), Dose: 0, 0.02, 0.1, 0.2, 0.4 G/L IN DRINKING WATER FOR 52, 78, OR 100 WK (STUDY DURATION: 100 WK), Tumor Site: Type of Lesion: TESTICLE: MESOTHELIOMA, KIDNEY: RENAL CELL TUMOR, THYROID: TUMOR, Tumor Site: Type of Lesion: TESTICLE: MESOTHELIOMA, KIDNEY: RENAL CELL TUMOR, THYROID: TUMOR
  carcinogen call: active; positive
Species: RAT, Strain/Sex: F344/MALE, Route: ORAL, Dose: 250, 500 PPM IN DRINKING WATER (HIGH DOSE REDUCED TO 400 PPM AT WK 60), Tumor Site: Type of Lesion: KIDNEY: RENAL CELL ADENOMA, RENAL CELL ADENOCARCINOMA, PERITONEAL CAVITY: MESOTHELIOMA
  carcinogen call: active; positive
Species: Rat, Strain/Sex: F344 (20-41/group), Route: Oral, Dose: 0, 300, 600 mg/kg single intragastric administration, study duration 87 wk, Dose: 0, 300, 600 mg/kg single intragastric administration, study duration 87 wk, Tumor Site: Type of Lesion: Kidney: Renal adenoma and carcinoma (0/20, 0/20, 4/41)
  carcinogen call: active; positive
Species: Rat, Strain/Sex: F344/Male (14-20/group), Route: Oral, Dose: 500 ppm in drinking water for 13, 26, 39, and 52 wk followed by drinking water for a study duration of 104 wk, Tumor Site: Type of Lesion: Kidney: Adenoma (10/20, 9/19,13/19, 8/14), Adenocarcinoma (2/20, 1/19, 6/19, 3/14). Peritoneum: Mesothelioma (6/20, 8/19
  carcinogen call: active; positive
Species: Rat, Strain/Sex: F344/Male (20-24/group), Route: Oral, Dose: 0, 15, 30, 60, 125, 250, 500 ppm in drinking water for 104 wk, Dose: 0, 15, 30, 60, 125, 250, 500 ppm in drinking water for 104 wk, Tumor Site: Type of Lesion: Kidney: Renal adenoma (0/19, 0/19, 0/20, 1/24, 5/24, 5/20, 6/20) and adenocarcinoma (0/19, 0/19, 0/20, 0/24, 0/24, 0/20
  carcinogen call: active; positive
Species: Rat, Strain/Sex: Fischer 344/Female (50/group), Route: Oral, Dose: 0, 10, 30, 50 mg/kg/day by gavage once daily for 104 wk, Dose: 0, 10, 30, 50 mg/kg/day by gavage once daily for 104 wk
  carcinogen call: inactive; negative
Species: Rat, Strain/Sex: Fischer 344/Male (50/group), Route: Oral, Dose: 0, 10, 30, 50 mg/kg/day by gavage once daily for 104 wk, Dose: 0, 10, 30, 50 mg/kg/day by gavage once daily for 104 wk
  carcinogen call: inactive; negative
